Experimental data: US7238525B2, “Strategy for leukemia therapy” (The Regents of the University of California, priority 2000, dated 2007)

How the values were obtained:
K562 cells [1] = assay: Cell survival assay, K562 cells; type: cell-based; conditions: 72 hours treatment, then drug removal
Experimental: […]. […] […].
After 48 h (TonB, TonB210) or 72 h (K562), live cells were counted with the Trypan blue exclusion assay. Cells were then washed extensively with PBS and placed in growth media. Trypan blue cell counts were repeated every 48 h and followed by feeding with fresh media. Cell counts were stopped when the number of viable cells was higher than the number of cells originally plated.

TonB cells = conditions: 48 hours treatment, with IL-3
[2] = human, in vivo; cited from earlier work
Bcr-Abl-KD = assay: Nuclear localization by immunofluorescence in transfected Abl−/− fibroblasts (Bcr-Abl-KD); type: cell-based; conditions: LMB alone
[3] = human, in vivo; cited from earlier work; remark: listed apart in the source
untransfected cells = assay: TUNEL assay, untransfected cells; type: cell-based; conditions: STI571 alone, BCR-Abl-NES experiment
From the text: It is known that activation of the nuclear Abl tyrosine kinase by DNA damage can contribute to the induction of apoptosis (Gong et al., 1999; Wang, 2000). Similarly, when translocated into the nucleus, Bcr-Abl kinase can activate apoptosis. […]. […] However, removal of the inhibitor while maintaining the Bcr-Abl in the nucleus strongly stimulated apoptosis. […]. With this protocol, between 70–80% of the Bcr-Abl expressing cells were positive for TUNEL staining, whereas the apoptosis rate remained at the 10% level with untransfected cells (Table 2). By expressing Bcr-Abl-KD and treating cells with LMB alone, it was confirmed that an active nuclear Bcr-Abl kinase was required to induce apoptosis.
Cell Death Assays. […] […].

human leukemic cells = conditions: in vivo STI571 treatment; cited from earlier work
K562 cells [4] = assay: Tyrosine-phosphorylated proteins in total cell lysates, K562; conditions: at the end of drug treatments
Experimental: The tyrosine-phosphorylated proteins in total cell lysates were examined at the end of drug treatments and then before their precipitous death.
Transfection and Immunoblotting. […] Immunoblots were performed using 1 μg/ml 4G10 monoclonal antibody against phosphotyrosine (Upstate Biotechnology, Waltham, Mass.), or 1 μg/ml monoclonal antibody against Abl (8E9) (Pharmingen, San Diego, Calif.).

With `CCC(=C/[C@H](C)C/C=C/C(C)=C/[C@@H](C)C(=O)[C@@H](C)[C@H](O)[C@@H](C)C/C(C)=C/C(=O)O)/C=C/[C@@H]1OC(=O)C=C[C@@H]1C` [LMB, leptomycin B] as the compound, how does the viable cell numbers (K562 cells [1]) read?
Its viable cell numbers is “initial decline in cell number”.

What about the viable cell numbers (TonB cells) of the same compound?
Its viable cell numbers is “caused a reduction in cell numbers”.

And the “toxicity observed in a phase I clinical trial” value [2]?
Its value is “neuronal toxicity”.

And the “nuclear fraction of Bcr-Abl-KD” value (Bcr-Abl-KD)?
The value was 25–35%.

What does the source list for `Cc1ccc(NC(=O)c2ccc(CN3CCN(C)CC3)cc2)cc1Nc1nccc(-c2cccnc2)n1` [STI571, 4-[(4-methyl-piperazinyl)methyl]-N-[4-methyl-3-[[4-(3-pyrodnyl)-2-pyrimidinyl]amin]phenyl]benzamide methanesul-fonate]?
viable cell numbers (K562 cells [1]): initial death; maximum tolerated dose [3]: No maximum tolerated dose has been identified; TUNEL-positive untransfected cells (untransfected cells): 3%; tumors eradicated (human leukemic cells): 70–100%; overall levels of tyrosine-phosphorylated proteins (K562 cells [4]): decreased
